One assay has as its system plasma IL-17A. The assay can be described thus: In vivo IL-17A induction in anti-CD3 model in mice. To be noted: oral gavage twice daily day 0 to day 3, C57BL/6JRj mice. On the procedure:
Male C57BL/6JRj mice (7 week old) were purchased from Janvier Labs and housed at the animal facilities of Almirall throughout the study. Animals were allowed to condition for 5 days in their new environment at 22° C.±2° C., 55%±10% relative humidity and 12 h: 12 h light:dark cycles. Animals were housed in polycarbonate cages, with free access to water and non-purified stock diet (2014 Teklad Global 14% Protein Rodent Maintenance Diet, Envigo) during the full course of the studies. Care of animals was undertaken in compliance with the European Committee Directive 2010/63/EU, and the Catalan and Spanish law. All procedures were performed according to the ARRIVE guidelines (Animal Research: Reporting of In Vivo Experiments) and with approval from the Animal Experimentation Ethical Committee of Almirall (Barcelona, Spain).
Mice were injected intraperitoneally with 7.5 μg of anti-CD3e (Clone 145-2C11 from Pharmingen BD) at 0 h (day 0) and […] (day 3) time-points. The non-induced-group were injected with PBS instead of anti-CD3e. At study completion (4 h after anti-CD3e injection), animals were anaesthetized with isofluorane (Baxter) and 0.5-1 mL blood samples were drawn by intracardiac puncture in heparinized tubes. Plasma samples were stored at −80° C. for subsequent analysis.
Test compounds were freshly suspended in sterile 0.5% methylcellulose 0.1% tween-80 solution (10 mL/kg body weight). […]
Plasma levels of IL-17A were measured by ELISA (R&D Systems) according to the manufacturer's instruction. Results were calculated as the percentage of reduction of plasma IL-17A versus the difference between non-induced and anti-CD3e induced groups through the formula: inhibition=100*[1−[(x−mean non-induced)/(mean control vehicle−mean non-induced)]]. The IL-17A inhibition for each treatment can be expressed as the mean for each treatment group±S.E.M. Statistical analysis of data were conducted with one-way ANOVA followed by Dunnett's multiple comparisons test when appropriate. […]

The subject of assay [1] is IL-17A secretion in activated PBMCs. The assay can be described thus: IL-17A secretion in activated PBMCs. Format: cell-based, human. To be noted: human PBMCs stimulated with CD3/CD28 Dynabeads for 48 h, absolute IC50. The essentials:
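Human PBMCs from healthy donors, 40,000 cells/well, were preincubated 30 min with compound in 10-point 5-fold dilutions (0.1% DMSO), then stimulated 48 h at 37° C with CD3/CD28 beads (1:1). Supernatant IL-17A was read by bead immunoassay on a flow cytometer. Inhibition was normalized to activated DMSO (top) and GNE09461 10 μM (basal).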

The target of assay [2] is T1, RORγ ligand-binding domain fused to Gal4 (Homo sapiens, UniProt P51449).
T1 construct: Gal4 (galactose-responsive transcription factor); expressed in transfected cells; host or cells: HEK293
T1 sequence (P51449 269-508 limits assumed): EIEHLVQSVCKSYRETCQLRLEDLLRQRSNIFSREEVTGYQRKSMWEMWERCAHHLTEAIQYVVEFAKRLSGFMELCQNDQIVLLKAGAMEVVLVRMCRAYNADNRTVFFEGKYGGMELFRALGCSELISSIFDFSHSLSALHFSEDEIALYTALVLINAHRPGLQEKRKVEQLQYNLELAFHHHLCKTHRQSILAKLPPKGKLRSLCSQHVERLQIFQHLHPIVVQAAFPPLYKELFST
The assay can be described thus: RORγ Reporter Assay (Gal4). The format is cell-based. In outline:
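HEK293 cells transiently co-transfected with the Gal4-fused RORγ LBD and a UAS-luciferase reporter were exposed to compounds for 24 h at 37 °C (0.1% DMSO final). Luminescence was read, and percent reduction of RORγ activity was calculated relative to vehicle-average RLU.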
On the technique in general: A reporter such as luciferase makes a cellular process visible.

In assay [3] the target is T1, RORγ ligand-binding domain fused to Gal4. To be noted: cited from earlier work.
[4] abbreviates: RORγ Gal4 assay EC50, Examples in <100 range, Examples of WO2016020288, based on % inhibition at 0.1 and/or 1 uM (Table 5 c, footnote 4).
[5] abbreviates: RORγ Gal4 assay EC50, Examples in <500 range, Examples of WO2016020288, based on % inhibition at 0.1 and/or 1 uM (Table 5 c, footnote 5).
Setting [6] is: comparison compounds of WO2016020288, source marked WO2016020288.
The mark [7] stands for this setting: comparison examples of WO2016020288 (footnote 1).
[8] abbreviates: HEK293 cells co-transfected with RORγ LBD-Gal4 and luciferase reporter, 24 h incubation, absolute EC50, read-out: EC50.

Like-named read-outs stand apart in the source and are kept apart here.

The term IC50 denotes the midpoint of a concentration-inhibition curve. A higher IC50 goes with weaker potency. Take `CCN(Cc1ccc(C(F)(F)F)cc1)c1ncnc(NC[C@]2(O)CCN(CC(N)=O)C[C@H]2O)c1F` (single isomer, unassigned) [Example D5-01-1-1]: the “Inhibition of IL-17A (%) at 3 mg/kg” value in the assay with plasma IL-17A came out at 92%. The same molecule registered a half-maximal inhibitory concentration (IC50) in assay [1] of 1.9 nM.
Consider `CCN(Cc1ccc(C(F)(F)F)cc1F)c1ncnc(NC[C@]2(O)CCN(CC(N)=O)C[C@H]2O)c1F` (single isomer, unassigned) [Example D5-03-1-1], for which the “Inhibition of IL-17A (%) at 3 mg/kg” value in the assay on plasma IL-17A is recorded as 93%. The IC50 in assay [1] (Homo sapiens, PBMC, 48 h) was found to be 3 nM.
For orientation: EC50 means the midpoint of the concentration-response curve. Take `NC(=O)Cc1ccc(CNc2ncnc(N(Cc3ccc(C(F)(F)F)cc3)C3CC3)c2F)cc1` [Example A2, reference compound]: the EC50 is under 100 nM in assay [2] (setting [4]), under 500 nM in assay [2] (setting [5]) and under 100 nM in assay [3] (setting [6]).
As to `CC(c1ccc(C(F)(F)F)cc1)N(c1ncnc(NCc2ccc(CC(N)=O)cc2)c1F)C1CC1` (stereo not shown) [Example A3, reference compound], the 50% effective concentration (EC50) is under 100 nM in assay [2] (setting [4]), under 500 nM in assay [2] (setting [5]) and under 100 nM in assay [3] (setting [7]).
As to `CS(=O)(=O)N1CCC(CNc2ncnc(N(Cc3ccc(C(F)(F)F)cc3)C3CC3)c2F)CC1` [Example A7, reference compound], the EC50 in assay [2] (setting [4]) was under 100 nM; in assay [2] (setting [5]), under 500 nM; in assay [3] (setting [6]), under 100 nM.
Regarding `N#CC1(CNc2ncnc(N(Cc3ccc(C(F)(F)F)cc3)C3CC3)c2F)CCN(CC(N)=O)CC1` [Example A7-50, 2-(4-cyano-4-(((6-(cyclopropyl(4-(trifluoromethyl)benzyl)amino)-5-fluoropyrimidin-4-yl)amino)methyl)piperidin-1-yl)acetamide], the EC50 in assay [2] (setting [8]) was determined as 8.1 nM. Further, the IC50 in assay [1] (Homo sapiens, PBMC, 48 h) was 40 nM.
Consider `NC(=O)CN1CCC(CO)(CNc2ncnc(N(Cc3ccc(C(F)(F)F)cc3)C3CC3)c2F)CC1` [Example A7-51, 2-(4-(((6-(cyclopropyl(4-(trifluoromethyl)benzyl)amino)-5-fluoropyrimidin-4-yl)amino)methyl)-4-(hydroxymethyl)piperidin-1-yl)acetamide], for which the EC50 in assay [2] (setting [8]) stood at 2.4 nM. Besides, inhibition in assay [1] (Homo sapiens, PBMC, 48 h) was half-maximal at 7.3 nM (IC50).
In the case of `NC(=O)CN1CCC(CO)(CNc2ncnc(N(Cc3ccc(C(F)(F)F)cn3)C3CC3)c2F)CC1` [Example A7-52, 2-(4-(((6-(cyclopropyl((5-(trifluoromethyl)pyridin-2-yl)methyl)amino)-5-fluoropyrimidin-4-yl)amino)methyl)-4-(hydroxymethyl)piperidin-1-yl)acetamide], the EC50 in assay [2] (setting [8]) is 42 nM; in assay [2] (compounds of the present disclosure, value from Table 2 herein, read-out: Gal4 assay EC50), under 100 nM. The molecule further gave an IC50 in assay [1] (Homo sapiens, PBMC, 48 h) of 130 nM.
Consider `NC(=O)C(CO)N1CCC(O)(CNc2ncnc(N(Cc3ccc(C(F)(F)F)cc3)C3CC3)c2F)CC1` (stereo not shown) [Example A7-68, 2-(4-(((6-(cyclopropyl(4-(trifluoromethyl)benzyl)amino)-5-fluoropyrimidin-4-yl)amino)methyl)-4-hydroxypiperidin-1-yl)-3-hydroxypropanamide], for which, in assay [2] (setting [8]), the EC50 was 20 nM. Also, 21 nM corresponded to half-maximal inhibition in assay [1] (Homo sapiens, PBMC, 48 h) (IC50).
In the case of `NC(=O)C(CO)N1CCC(CO)(CNc2ncnc(N(Cc3ccc(C(F)(F)F)cc3)C3CC3)c2F)CC1` (stereo not shown) [Example A7-70, 2-(4-(((6-(cyclopropyl(4-(trifluoromethyl)benzyl)amino)-5-fluoropyrimidin-4-yl)amino)methyl)-4-(hydroxymethyl)piperidin-1-yl)-3-hydroxypropanamide], the EC50 in assay [2] (setting [8]) was determined as 8.8 nM. Also, inhibition in assay [1] (Homo sapiens, PBMC, 48 h) was half-maximal at 12 nM (IC50).
With `NC(=O)CN1CCC(CNc2ncnc(N(Cc3ccc(C(F)(F)F)cc3)C3CC3)c2F)(c2ncon2)CC1` [Example A7-81, 2-(4-(((6-(Cyclopropyl(4-(trifluoromethyl)benzyl)amino)-5-fluoropyrimidin-4-yl)amino)methyl)-4-(1,2,4-oxadiazol-3-yl)piperidin-1-yl)acetamide], the EC50 in assay [2] (setting [8]) is 5.3 nM. Further, half-maximal inhibition in assay [1] (Homo sapiens, PBMC, 48 h) (IC50) was put at 120 nM.
In the same order, the values of `NC(=O)CN1CCC(CNc2ncnc(N(Cc3ccc(C(F)(F)F)cc3)C3CC3)c2F)(c2nnco2)CC1` [Example A7-82, 2-(4-(((6-(Cyclopropyl(4-(trifluoromethyl)benzyl)amino)-5-fluoropyrimidin-4-yl)amino)methyl)-4-(1,3,4-oxadiazol-2-yl)piperidin-1-yl)acetamide] are 8.1 nM and 150 nM.
On to `NC(=O)CN1CCC(CNc2ncnc(N(Cc3ccc(C(F)(F)F)cc3)C3CC3)c2F)(c2cnn[nH]2)CC1` [Example A7-85, 2-(4-(((6-(Cyclopropyl(4-(trifluoromethyl)benzyl)amino)-5-fluoropyrimidin-4-yl)amino)methyl)-4-(1H-1,2,3-triazol-5-yl)piperidin-1-yl)acetamide], for which the EC50 in assay [2] (setting [8]) turned out to be 7.9 nM. The molecule further gave an IC50 in assay [1] (Homo sapiens, PBMC, 48 h) of 120 nM.
For `CC(=O)N1CCC(CNc2ncnc(N(Cc3ccc(C(F)(F)F)cc3)C3CC3)c2F)CC1` [Example A11, reference compound], the EC50 in assay [2] (setting [5]) is under 500 nM; in assay [3] (setting [6]), under 100 nM.
Consider `OC1(CNc2ncnc(N(Cc3ccc(C(F)(F)F)cc3)C3CC3)c2F)CCC(F)(F)CC1` [Example A44, reference compound], for which the EC50 in assay [2] (setting [4]) was under 100 nM; in assay [2] (setting [5]) it was under 500 nM; in assay [3] (setting [6]), under 100 nM.
Consider `NC(=O)Cc1ccc(CNc2ncnc(N(Cc3ccc(C(F)(F)F)nc3)C3CC3)c2F)cc1` [Example A83, reference compound], for which the EC50 in assay [2] (setting [4]) is under 100 nM; in assay [2] (setting [5]) it was under 500 nM; in assay [3] (setting [7]), under 100 nM.
Turning to `NC(=O)Cc1ccc(CNc2ncnc(N(Cc3ccc(C(F)(F)F)cn3)C3CC3)c2F)cc1` [Example A85, reference compound], the half-maximal effective concentration (EC50) is under 100 nM in assay [2] (setting [4]), under 500 nM in assay [2] (setting [5]) and under 100 nM in assay [3] (setting [7]).
As for `NC(=O)CC1CC(CNc2ncnc(N(Cc3ccc(C(F)(F)F)cc3)C3CC3)c2F)C1` (stereo not shown) [Example A95, reference compound], the EC50 in assay [2] (setting [5]) and in assay [3] (setting [6]) was under 500 nM in each case.
Regarding `NC(=O)Cc1ccc(CNc2ncnc(N(Cc3cnc(C(F)(F)F)nc3)C3CC3)c2F)cc1` [Example A98, reference compound], the EC50 in assay [2] (setting [4]) is under 100 nM; in assay [2] (setting [5]) it was under 500 nM; in assay [3] (setting [7]) it was under 100 nM.
As for `NC(=O)Cc1ccc(CNc2ncnc(N(Cc3cccc(OC(F)(F)F)c3)C3CC3)c2F)cc1` [Example A102, reference compound], the EC50 in assay [2] (setting [4]) was under 100 nM; in assay [2] (setting [5]), under 500 nM; in assay [3] (setting [7]), under 100 nM.
Take `CN(Cc1cccc(OC(F)(F)F)c1)c1ncnc(NCc2ccc(CC(N)=O)cc2)c1F` [Example A128, reference compound]: the results for the EC50 in assay [2] (setting [4]), in assay [2] (setting [5]) and in assay [3] (setting [7]) were under 100 nM, under 500 nM and under 100 nM, respectively.
